Holding throughout (assay type): functional
Assay [1] relates to COLO 205. The assay is described as follows: Cytotoxicity against human COLO205 cells assessed as cellular growth at 10 uM by SRB assay. On the technique in general: The SRB assay estimates cell density from bound dye.
Assay [2] concerns NCI-H226. The assay is described as follows: Cytotoxicity against human NCI-H226 cells assessed as cellular growth at 10 uM by SRB assay.
Assay [3] concerns HCT-15. The assay is described as follows: Cytotoxicity against human HCT15 cells assessed as cellular growth at 10 uM by SRB assay.
In assay [4] the test system is NCI-H322M. The assay is described as follows: Cytotoxicity against human NCI-H322M cells assessed as cellular growth at 10 uM by SRB assay.
Assay [5] deals with OVCAR-5. The assay is described as follows: Cytotoxicity against human OVCAR5 cells assessed as cellular growth at 10 uM by SRB assay.
Assay [6] has as its system IGROV-1. As to the kind of experiment: Cytotoxicity against human IGROV1 cells assessed as cellular growth at 10 uM by SRB assay.
Assay [7] deals with SK-MEL-5. The assay is described as follows: Cytotoxicity against human SK-MEL-5 cells assessed as cellular growth at 10 uM by SRB assay.
Assay [8] has as its system LOX IMVI. As to the kind of experiment: Cytotoxicity against human LOXIMVI cells assessed as cellular growth at 10 uM by SRB assay.
Assay [9] concerns SK-OV-3. The assay is described as follows: Cytotoxicity against human SKOV3 cells assessed as cellular growth at 10 uM by SRB assay.
For assay [10], the system named is HOP-92. The assay is described as follows: Cytotoxicity against human HOP92 cells assessed as cellular growth at 10 uM by SRB assay.
For assay [11], the system named is HCT-116. As to the kind of experiment: Cytotoxicity against human HCT116 cells assessed as cellular growth at 10 uM by SRB assay.
Assay [12] deals with Malme-3M. As to the kind of experiment: Cytotoxicity against human MALME-3M cells assessed as cellular growth at 10 uM by SRB assay.
For assay [13], the system named is SNB-75. As to the kind of experiment: Cytotoxicity against human SNB75 cells assessed as cellular growth at 10 uM by SRB assay.
The test system of assay [14] is T47D. The assay is described as follows: Cytotoxicity against human T47D cells assessed as cellular growth at 10 uM by SRB assay.
Assay [15] concerns OVCAR-4. The assay is described as follows: Cytotoxicity against human OVCAR4 cells assessed as cellular growth at 10 uM by SRB assay.
For assay [16], the system named is UO-31. As to the kind of experiment: Cytotoxicity against human UO31 cells assessed as cellular growth at 10 uM by SRB assay.
In assay [17] the test system is A498. As to the kind of experiment: Cytotoxicity against human A498 cells assessed as cellular growth at 10 uM by SRB assay.
Assay [18] deals with SK-MEL-28. The assay is described as follows: Cytotoxicity against human SK-MEL-28 cells assessed as cellular growth at 10 uM by SRB assay.
In assay [19] the test system is EKVX. As to the kind of experiment: Cytotoxicity against human EKVX cells assessed as cellular growth at 10 uM by SRB assay.
In assay [20] the test system is SR. The assay is described as follows: Cytotoxicity against human SR cells assessed as cellular growth at 10 uM by SRB assay.

Take `Clc1ccccc1Nc1nnc(-c2ccncc2)s1`: the Activity in assay [1] is 114.33%; in [2] it was 100.58%; in assay [3], 112.25%; in [4], 93.72%; in assay [5], 106.94%; in [6] it was 100.52%. The Activity in assay [7] is recorded as 97.75%; in assay [8] it was 110.09%; in assay [9] it was 104.92%; in assay [10], 93.87%; in [11], 101.59%; in [12], 108.85%. Further, the Activity in [13] stood at 105.58%; in assay [14], 89.46%; in [15] it was 94.51%; in [16], 90.67%; in [17], 92.09%; in [18], 100.34%. Also, the Activity in assay [19] is recorded as 91.68%.

In the case of `Nc1c(C(=O)NCc2ccccc2)sc2nc3c(cc12)C(=O)CCC3`, the Activity in assay [1] came out at 133.04%; in assay [2], 106.37%; in assay [3], 105.31%; in assay [4] it was 123.15%; in assay [5], 113.08%; in assay [6], 124.94%. Further, the Activity in assay [7] stood at 100.24%; in [8] it was 103.06%; in assay [9], 111.91%; in assay [10], 79.65%; in assay [11] it was 108.9%; in assay [12], 139.75%. In addition, the Activity was 113.06% in [13]; 116.81% in assay [20]; 106.44% in [14]; 117.19% in assay [15]; 109.24% in assay [16]; 100.49% in assay [17]. Further, the Activity in assay [18] was found to be 118.31%.

As for `COc1cc(/C=c2/sc3nc4ccccc4n3c2=O)cc(I)c1O`, the Activity is 103.31% in assay [1]; 94.19% in assay [2]; 91.48% in [3]; 109.21% in assay [4]; 102.12% in [5]; 110.46% in assay [6]. The Activity in [7] was 81.43%; in [8], 93.01%; in [9], 96.7%; in assay [10] it was 93.81%; in assay [11] it was 98.72%; in assay [12], 109%. Further, the Activity is recorded as 114.58% in [13]; 82.96% in [14]; 96.8% in assay [15]; 70.56% in assay [16]; 69.55% in [17]; 111.82% in assay [18]. In addition, the Activity in assay [19] came out at 92.52%.

Take `Cc1c(OCC(=O)c2ccccc2)ccc2c1oc(=O)c1ccccc12`: the Activity in assay [1] turned out to be 117.2%; in assay [2], 99.25%; in assay [3], 107.13%; in assay [4], 115.03%; in [5] it was 108.12%; in assay [6], 115.73%. The Activity in [7] was 97.8%; in assay [8], 98.34%; in [9], 101.55%; in [10] it was 103.71%; in assay [11], 107.52%; in [12], 120.27%. Also, the Activity in assay [13] is on record as 122.93%; in [14] it was 94.27%; in [15], 106.31%; in assay [16], 107.51%; in assay [17], 91.47%; in [18] it was 113.56%. Besides, in [19], the Activity was 99.55%.

With `O=C(NCCc1ccccc1)c1[nH]c2ccccc2c1Cl`, the Activity in [1] is reported as 99.13%; in [2], 73.27%; in assay [3], 86.01%; in assay [4], 98.86%; in [5], 104.54%; in assay [6], 82.65%. Also, the Activity is on record as 82.39% in assay [7]; 89.47% in assay [8]; 91.3% in [9]; 72.64% in assay [10]; 87.15% in assay [11]; 109.22% in [12]. The Activity in assay [13] is listed as 79.43%; in assay [14], 71.67%; in [15], 82.6%; in assay [16] it was 57.64%; in assay [17] it was 81.46%; in assay [18], 106.79%. Besides, the Activity in assay [19] was found to be 57.12%.

In the case of `O=C(NCCc1ccc(Cl)cc1)c1[nH]c2ccccc2c1Cl`, the Activity in [1] was found to be 97.59%; in assay [2] it was 89.37%; in assay [3], 101.72%; in assay [4] it was 106.64%; in assay [5], 117.9%; in assay [6] it was 93.76%. In addition, the Activity was 95.47% in assay [7]; 96.1% in assay [8]; 86.84% in [9]; 81.73% in [10]; 98.39% in [11]; 107.52% in [12]. The Activity in [13] is 89.76%; in assay [14], 81.02%; in assay [15], 89.13%; in [16], 73.65%; in [17], 77.04%; in [18], 109.77%. In addition, the Activity in assay [19] was 91.27%.

For the compound `Cc1ccc(CNC(=O)c2[nH]c3ccccc3c2Cl)cc1`, the Activity was found to be 99.99% in [1]; 96.65% in assay [2]; 106.3% in assay [3]; 111.04% in assay [4]; 108.38% in [5]; 99.38% in [6]. Moreover, the Activity in assay [7] came out at 99.25%; in assay [8], 97.73%; in [9] it was 92.6%; in [10] it was 81.7%; in assay [11], 107.58%; in assay [12] it was 116.06%. Also, the Activity in assay [13] turned out to be 123.78%; in [14], 84.33%; in assay [15] it was 101.65%; in assay [16] it was 110.2%; in [17] it was 69%; in assay [18], 113.18%. Besides, the Activity in [19] is 91.13%.

Regarding `Cc1ccc(Cl)cc1NC(=O)c1sc2nc3c(cc2c1N)C(=O)CCC3`, the Activity in assay [1] was 39.71%; in assay [2], 88.29%; in assay [3], 45.91%; in assay [4], 95.72%; in assay [5] it was 94.25%; in assay [6], 75.72%. In addition, the Activity amounted to 26.98% in assay [7]; 68.07% in [8]; 42.36% in [9]; 56.86% in [10]; 67.98% in [11]; 81.13% in [12]. In addition, the Activity in assay [13] was found to be 48.01%; in assay [20] it was 68.85%; in [14] it was 82.87%; in assay [15] it was 90.15%; in [16], 83.44%; in [17], 51.16%. For the same compound, the Activity in assay [18] was determined as 67.01%; in assay [19], 75.28%.

With `Cc1ccc(NC(=O)c2sc3nc4c(cc3c2N)C(=O)CCC4)c(Br)c1`, the Activity is given as 113.39% in assay [1]; 99.85% in [2]; 103.46% in assay [3]; 103.11% in assay [4]; 105.13% in [5]; 112.76% in [6]. Also, the Activity in [7] worked out at 92.03%; in assay [8] it was 102.77%; in assay [9] it was 92.59%; in [10], 107.03%; in [11], 106.38%; in assay [12], 95.81%. Besides, the Activity in assay [13] is 107.29%; in assay [14], 89.73%; in assay [15] it was 105.66%; in assay [16], 94.06%; in assay [17], 83.73%; in [18] it was 107.72%. In addition, in assay [19], the Activity was found to be 89.55%.

As to `N#Cc1ccc(NC(=O)c2sc3nc4c(cc3c2N)C(=O)CCC4)cc1`, the Activity is listed as 108.98% in [1]; 93.7% in [2]; 100.78% in assay [3]; 102.55% in assay [4]; 89.16% in [5]; 113.1% in assay [6]. Besides, the Activity in [7] is listed as 92.55%; in assay [8] it was 111.96%; in assay [9], 106.21%; in assay [10] it was 95.57%; in [11] it was 107.92%; in assay [12], 89.34%. The Activity in assay [13] is recorded as 113.44%; in [14] it was 95.85%; in assay [15], 105.84%; in assay [16], 103.56%; in [17] it was 79.55%; in assay [18] it was 105.89%. Further, the Activity in assay [19] is recorded as 93.58%.

On to `O=C(NCCc1ccccc1)c1cc2cccc([N+](=O)[O-])c2[nH]1`, for which the Activity is given as 90.85% in [1]; 82.38% in assay [2]; 86.79% in [3]; 115.94% in [4]; 116.02% in assay [5]; 101.06% in assay [6]. The Activity in assay [7] was 76.25%; in [8] it was 85.8%; in assay [9], 91.43%; in [10], 84.88%; in [11] it was 101.79%; in [20], 91.6%. Moreover, the Activity in [14] is on record as 69.69%; in [15], 75.65%; in [16], 62.13%; in [17] it was 117.41%; in assay [18], 99.12%; in [19] it was 83.28%.

The values are drawn from ChEMBL document CHEMBL2202954, “The effect of PLC-γ2 inhibitors on the growth of human tumour cells” (2012).
